The results in this text go back to BindingDB's records for doi:10.1016/s0960-894x(99)00243-7 (Eisai Research Institute, 1999).

Values joined by “and” are separate entries in the source; they are usually repeats but may differ in a detail not shown here. Identical values can stand only once. Bounds are passed on as bounds.

The nature of data set [1]: Evaluated for cytotoxicity using P388/VMDRC.04 cells (a subline of P388 murine leukemia cells expressing human recombinant human P-glycoprotein) in the absence of 10 nM vincristine.
A short description of data set [2]: Multidrug-resistant reversal activity using P388/VMDRC.04 cells (a subline of P388 murine leukemia cells expressing human recombinant human P-glycoprotein) in the presence of 10 nM vincristine.
Data set [3] in a line: Evaluated for cytotoxicity using P388/VMDRC.04 cells (a subline of P388 murine leukemia cells expressing human recombinant human P-glycoprotein) in the absence of 10 nM vincristine. This is another data set of the same source.

For the compound `CCCCCCC[C@H]1OC(=O)C[C@H](OCOC)[C@H](Cc2ccccc2)N(C)C(=O)[C@H](C(C)C)OC(=O)[C@H]1C`, the IC50 was 41.5 µM in data set [1]; 5.5 µM and 5.4 µM in data set [2].
With `COCO[C@H]1CC(=O)O[C@H](C)[C@H](C)C(=O)OCC(=O)N(C)[C@H]1Cc1ccccc1`, the 50% inhibitory concentration (IC50) in data set [1] is > 100 µM; in data set [2], 42.7 µM.
For `CCCCCCC[C@@H]1CC(=O)O[C@@H](C(C)C)C(=O)N(C)[C@@H](Cc2ccccc2)[C@H](O)CC(=O)O1`, the figures for the IC50 in data set [1] and in data set [3] were 24 µM and 6.2 µM, respectively.
In the same order, the values of `CCCCCCC[C@@H]1CC(=O)O[C@@H](C(C)C)C(=O)N(C)[C@@H](Cc2ccccc2)[C@H](OCOC)CC(=O)O1` are 34.4 µM and 6 µM.
Take `CCCCCCC[C@H]1OC(=O)C[C@@H](O)[C@H](Cc2ccccc2)N(C)C(=O)COC(=O)[C@H]1C`: the IC50 in data set [1] came out at 22.5 µM; in data set [3] it was 5.8 µM.
As for `CCCC[C@H]1OC(=O)C[C@H](O)[C@H](Cc2ccccc2)N(C)C(=O)COC(=O)[C@H]1C`, the values for the IC50 in data set [1] and in data set [2] were > 80 µM and 18.1 µM, respectively.
For `CC(C)[C@@H]1OC(=O)[C@@H](C)COC(=O)C[C@@H](O)[C@H](Cc2ccccc2)N(C)C1=O`, the IC50 in data set [3] is 21.9 µM.
For `CCCCCCC[C@H]1OC(=O)C[C@H](O)[C@H](Cc2ccccc2)N(C)C(=O)[C@H](C(C)C)OC(=O)[C@H]1C`, the IC50 is 42.2 µM in data set [1] and 5.7 µM in data set [2].
On to `CCCCCCC[C@H]1OC(=O)CC[C@H](Cc2ccccc2)N(C)C(=O)[C@H](C(C)C)OC(=O)[C@H]1C`, for which the IC50 was determined as 33.7 µM in data set [1] and 6 µM in data set [3].
Consider `CCCCCCC[C@H]1OC(=O)C[C@H](OCOC)[C@H](Cc2ccccc2)N(C)C(=O)C(C)(C)OC(=O)[C@H]1C`, for which the IC50 in data set [1] was found to be 20 µM; in data set [2], 5.6 µM.
Take `COCO[C@@H]1CC(=O)OC[C@H](C)C(=O)O[C@@H](C(C)C)C(=O)N(C)[C@H]1Cc1ccccc1`: the values for the IC50 in data set [1] and in data set [3] were > 100 µM and 10.4 µM, respectively.
In the case of `COCO[C@H](CC(=O)OC)[C@H](Cc1ccccc1)N(C)C(=O)OCc1ccccc1`, the IC50 in data set [1] is > 86 µM; in data set [2], 14.9 µM.
As to `CCCCCCC[C@H]1OC(=O)C[C@@H](O)[C@H](Cc2ccccc2)N(C)C(=O)[C@H](C)OC(=O)[C@H]1C`, the IC50 in data set [1] was determined as 27.1 µM; in data set [2], 6.2 µM.
As to `COC(=O)C[C@@H](O)[C@H](Cc1ccccc1)N(C)C(=O)OCc1ccccc1`, the IC50 in data set [1] is > 89 µM; in data set [3], 17.1 µM.
For `CCCCCCC[C@H]1OC(=O)C[C@@H](OCOC)[C@H](Cc2ccccc2)N(C)C(=O)COC(=O)[C@H]1C` the same measures were 15.1 µM and 2.3 µM.
In the same order, the values of `CC(C)[C@@H]1OC(=O)[C@@H](C)[C@@H](C)OC(=O)C[C@@H](O)[C@H](Cc2ccccc2)N(C)C1=O` are > 100 µM and 15 µM.
In the case of `CCCCCCC[C@H]1OC(=O)C[C@H](O)[C@H](Cc2ccccc2)N(C)C(=O)C(C)(C)OC(=O)[C@H]1C`, the figures for the IC50 in data set [1] and in data set [2] were 28.4 µM and 4.3 µM, respectively.
Take `CCCCCCC[C@H]1OC(=O)C[C@@H](OCOC)[C@H](Cc2ccccc2)N(C)C(=O)[C@H](C(C)C)OC(=O)[C@H]1C`: in data set [3], the IC50 turned out to be 6.1 µM.
In the case of `C[C@@H]1C(=O)OCC(=O)N(C)[C@@H](Cc2ccccc2)[C@@H](O)CC(=O)O[C@@H]1C`, the IC50 in data set [1] and in data set [2] was > 100 µM in each case.
For `COCO[C@@H]1CC(=O)O[C@H](C)[C@H](C)C(=O)O[C@@H](C(C)C)C(=O)N(C)[C@H]1Cc1ccccc1`, the half-maximal inhibitory concentration (IC50) in data set [1] was > 75 µM; in data set [3], 7.5 µM.
In the case of `CCCCCCC[C@@H](O)[C@H](C)C(=O)O[C@H](C(=O)OC)C(C)C`, the IC50 was > 83 µM in data set [1] and 16 µM in data set [2].
As for `CCCC[C@H]1OC(=O)C[C@H](OCOC)[C@H](Cc2ccccc2)N(C)C(=O)COC(=O)[C@H]1C`, the IC50 in data set [3] is 11.7 µM.
As to `CCCCCCC[C@H]1OC(=O)C[C@@H](OCOC)[C@H](Cc2ccccc2)N(C)C(=O)[C@H](C)OC(=O)[C@H]1C`, the half-inhibitory concentration (IC50) in data set [1] was found to be 19.3 µM; in data set [2], 5.9 µM.
For `CCCCCCC[C@H]1OC(=O)C[C@@H](O)[C@H](Cc2ccccc2)N(C)C(=O)[C@H](C(C)C)OC(=O)[C@H]1C` [HAPALOSIN] the same measures were 14.8 µM and 4.8 µM.
